According to patent US9675659B2 (Trilogy Therapeutics, Inc., priority 2015, dated 2017):
Converted amounts (≈) assume the structure as drawn. Like-named read-outs stand apart in the source and are kept apart here. Starred links: 1 amine or outer side, 2 acyl side, 3 side chain; linkers in the order of their positions; H or OH if unused. Positions of bridges follow the written chain, without caps; N, C: chain ends. Non-standard residues stand in square brackets, D forms with d. Residues, ends and D or L forms follow the SMILES beside them. *: point of attachment. hTyr(3S-OH,4S-OH,3'-OSO3H) = N[C@H](C(=O)O)[C@H](O)[C@@H](O)c1ccc(O)c(OS(=O)(=O)O)c1; pTerphenylCO(4''-OnC5H11) = CCCCCOc1ccc(-c2ccc(-c3ccc(C(=O)*)cc3)cc2)cc1; Orn(4R-OH,5R-OH) = O=C([C@H](C[C@@H](O)[C@@H](O)N[*:3])N[*:1])[*:2]; hTyr(3S-OH,4S-OH) = N[C@H](C(=O)O)[C@H](O)[C@@H](O)c1ccc(O)cc1; Pro(3S-OH,4S-Me) = C[C@H]1CN[C@H](C(=O)O)[C@H]1O; X1 = CCCCCOc1ccc(-c2cc(-c3ccc(C(=O)*)cc3)no2)cc1; Gln(3R-OH) = NC(=O)C[C@@H](O)[C@H](N)C(=O)O; Hyp = O=C(O)[C@@H]1C[C@@H](O)CN1

Assays:
[1] = cited from earlier work
[2] = tested on: Aspergillus terrus; conditions: 11 isolates; cited from earlier work
[3] = Toxicology observations in the rat inhalation/IV study (mortality, clinical signs, body weight, necropsy); assay type: in vivo; conditions: male rats, nose-only inhalation or intravenous injection, 2 mg/kg
Method: A detailed, hand-held physical examination was conducted on all animals once during the quarantine period (prior to randomization). During the treatment period, the animals were observed daily for mortality or evidence of moribundity; these checks were separated by a minimum of four hours. Daily cage-side clinical observations were conducted during exposure, and daily hand-held clinical observations were conducted before and after exposure. Observations included, but were not limited to the following: changes in the skin and fur, eyes, and mucous membranes; effects on the respiratory, circulatory, autonomic and central nervous systems; and effects on somatomotor activity and behavior pattern.
Body Weights and Body Weight Changes: Body weights were determined one day after animal receipt; at randomization; and prior to exposure on Study Day 1, 2, 3 and 7 (as applicable based on scheduled euthanization).

[4] = tested on: Candida tropicalis; conditions: 625 isolates; cited from earlier work
[5] = tested on: Aspergillus niger; conditions: 440 isolates; cited from earlier work
[6] = tested on: Aspergillus niger; conditions: 10 isolates; cited from earlier work
[7] = tested on: Candida parapsilosis; conditions: 759 isolates; cited from earlier work
[8] = tested on: Candida galbrata; conditions: 747 isolates; cited from earlier work
[9] = tested on: Candida albicans; conditions: 2869 isolates; cited from earlier work
[10] = tested on: Candida krusei; conditions: 136 isolates; cited from earlier work
[11] = tested on: Aspergillus nidulans; conditions: 13 isolates; cited from earlier work
[12] = tested on: Aspergillus fumigatus; conditions: 56 isolates; cited from earlier work
[13] = tested on: Aspergillus flavus; conditions: 13 isolates; cited from earlier work
[14] = in vivo; conditions: Sprague-Dawley, rat
Method: Tissue specimens (lung, liver and kidney) were collected from three animals per time point at 0.5, 2, 24 and 48 hours and 7 days after dose administration. All tissue specimens were stored frozen at approximately −70° C. until analyzed.
In Vivo Details: Thirty Sprague-Dawley derived rats [Crl:CD®(CD)Br] were obtained from Charles River Laboratories, Inc., Wilmington, Mass., for use in this study. The rats were 52 days of age (approximately 7.5 weeks) upon arrival. One day following receipt, body weights of the rats ranged from 171 g to 213 g. The animals were held in quarantine for 7 days prior to administration of the test article. […] Before being released from quarantine, the animals were given a detailed, hand-held physical examination to ensure their health and suitability as test subjects. The test animals were approximately 8.5 weeks old at the start of the first exposure to the test article.
The resulting solution was aseptically filtered and kept refrigerated between 2-8° C. until used.
Test Article Dosing: The animals were randomized into two groups of 15 animals based on body weight.
Inhalation Exposure Methods:
All study animals surviving to scheduled necropsy were euthanized by an overdose of an intraperitoneal injection of sodium pentobarbital at 35-45 mg/kg. Tissue specimens (lung, liver and kidney) were collected from three animals per time point at 0.5, 2, 24 and 48 hours and 7 days after dose administration. All tissue specimens were stored frozen at approximately −70° C. until analyzed.
After shaking for five minutes, the sample was centrifuged at 4° C. for 10 minutes to remove precipitated proteins and supernatant was transferred to an autosampler tube, diluted with 0.5 mL of water, and vortex-mixed for instrumental analysis.
Subsequently, 100 μL of the supernatant was transferred to a 2 mL centrifuge tube and processed for analysis using the same procedure as for plasma.
Tissue results in ng were converted to g/g using the amount of tissue extracted and the final extract volume.

[15] = tested on: Aspergillus versicolor; conditions: 75 isolates; cited from earlier work
[16] = rat, 2 mg/kg, cited from earlier work
[17] = tested on: Aspergillus nidulans; conditions: 192 isolates; cited from earlier work
[18] = tested on: Aspergillus flavus; conditions: 432 isolates; cited from earlier work
[19] = tested on: Aspergillus terrus; conditions: 385 isolates; cited from earlier work
[20] = tested on: Aspergillus fumigatus; conditions: 1691 isolates; cited from earlier work
[21] = tested on: Candida guilliermondii; conditions: 61 isolates; cited from earlier work
[22] = rat, intravenous; cited from earlier work

CCCCCOc1ccc(-c2ccc(-c3ccc(C(=O)N[C@H]4C[C@@H](O)[C@@H](O)NC(=O)[C@@H]5[C@@H](O)[C@@H](C)CN5C(=O)[C@H]([C@@H](C)O)NC(=O)[C@H]([C@H](O)[C@@H](O)c5ccc(O)cc5)NC(=O)[C@@H]5C[C@@H](O)CN5C(=O)[C@H]([C@@H](C)O)NC4=O)cc3)cc2)cc1 [anidulafungin] ({pTerphenylCO(4''-OnC5H11)}-[Orn(4R-OH,5R-OH)]T[Hyp][hTyr(3S-OH,4S-OH)]T[Pro(3S-OH,4S-Me)]; lactam 1-C)
time levels are maintained above MICs for common pathogens ([1]; rat tissues): ≥ 72 h
exposure in tissues (liver, lung, spleen, kidney) relative to plasma ([1]; rat): 9-12 fold
time to peak concentrations in tissues ([1]; rat): ≤ 30 min

CC[C@H](C)C[C@H](C)CCCCCCCCC(=O)N[C@H]1C[C@@H](O)[C@@H](NCCN)NC(=O)[C@@H]2[C@@H](O)CCN2C(=O)[C@H]([C@H](O)CCN)NC(=O)[C@H]([C@H](O)[C@@H](O)c2ccc(O)cc2)NC(=O)[C@@H]2C[C@@H](O)CN2C(=O)[C@H]([C@@H](C)O)NC1=O [Caspofungin, caspofungin]
MIC90 Average (Geometric Mean MIC) [2]: 0.12 µg/mL (≈ 0.11 µM)
MIC90 Range [2]: 0.06 to .2 µg/mL
clinical signs of toxicity [3]: no clinical signs of toxicity
effects on body weight [3]: no effects on body weight
gross necropsy findings [3]: no gross necropsy findings attributable to exposure to the test article
test-article related mortality [3]: no test-article related mortality
MIC90 [4]: 0.06 µg/mL (≈ 0.0549 µM)
MEC Average (Mode, most frequent MEC) [5]: 0.06 µg/mL
MEC Range [5]: 0.016 to 2 µg/mL
MIC90 Average (Geometric Mean MIC) [6]: 0.14 µg/mL (≈ 0.128 µM)
MIC90 Range [6]: 0.06 to 0.5 µg/mL
MIC90 [7]: 2 µg/mL (≈ 1.83 µM)
MIC90 [8]: 0.12 µg/mL (≈ 0.11 µM)
MIC90 [9]: 0.06 µg/mL (≈ 0.0549 µM)
MIC90 [10]: 0.06 µg/mL (≈ 0.0549 µM)
MIC90 Average (Geometric Mean MIC) [11]: 0.44 µg/mL (≈ 0.402 µM)
MIC90 Range [11]: 0.2 to 4 µg/mL
MIC90 Average (Geometric Mean MIC) [12]: 0.25 µg/mL (≈ 0.229 µM)
MIC90 Range [12]: 0.12 to 4 µg/mL
MIC90 Average (Geometric Mean MIC) [13]: 0.2 µg/mL (≈ 0.183 µM)
MIC90 Range [13]: 0.06 to 2 µg/mL
concentration at 0.5 h ([14]; kidney, inhaled, 2 mg/kg): 160 ng/g
concentration at 2 h ([14]; kidney, inhaled, 2 mg/kg): 160 ng/g
concentration at 24 h ([14]; kidney, inhaled, 2 mg/kg): 160 ng/g
concentration at 48 h ([14]; kidney, inhaled, 2 mg/kg): 120 ng/g
concentration at 168 h ([14]; kidney, inhaled, 2 mg/kg): 20 ng/g
concentration at 0.5 h ([14]; kidney, iv, 2 mg/kg): 500 ng/g
concentration at 2 h ([14]; kidney, iv, 2 mg/kg): 670 ng/g
concentration at 24 h ([14]; kidney, iv, 2 mg/kg): 500 ng/g
concentration at 0.5 h ([14]; liver, inhaled, 2 mg/kg): 90 ng/g
concentration at 2 h ([14]; liver, inhaled, 2 mg/kg): 130 ng/g
concentration at 24 h ([14]; liver, inhaled, 2 mg/kg): 300 ng/g
concentration at 48 h ([14]; liver, inhaled, 2 mg/kg): 180 ng/g
concentration at 168 h ([14]; liver, inhaled, 2 mg/kg): 20 ng/g
concentration at 0.5 h ([14]; liver, iv, 2 mg/kg): 250 ng/g
concentration at 2 h ([14]; liver, iv, 2 mg/kg): 310 ng/g
concentration at 24 h ([14]; liver, iv, 2 mg/kg): 660 ng/g
concentration at 0 h ([14]; lung, inhaled, 2 mg/kg): 10800 ng/g
concentration at 0.5 h ([14]; lung, inhaled, 2 mg/kg): 10800 ng/g
concentration at 2 h ([14]; lung, inhaled, 2 mg/kg): 10400 ng/g
concentration at 24 h ([14]; lung, inhaled, 2 mg/kg): 5310 ng/g
concentration at 39 h ([14]; lung, inhaled, 2 mg/kg): 5420 ng/g
concentration at 48 h ([14]; lung, inhaled, 2 mg/kg): 3370 ng/g
concentration at 78 h ([14]; lung, inhaled, 2 mg/kg): 2710 ng/g
concentration at 117 h ([14]; lung, inhaled, 2 mg/kg): 1350 ng/g
concentration at 156 h ([14]; lung, inhaled, 2 mg/kg): 680 ng/g
concentration at 168 h ([14]; lung, inhaled, 2 mg/kg): 390 ng/g
concentration at 195 h ([14]; lung, inhaled, 2 mg/kg): 340 ng/g
concentration at 273 h ([14]; lung, inhaled, 2 mg/kg): 80 ng/g
concentration at 312 h ([14]; lung, inhaled, 2 mg/kg): 40 ng/g
concentration at 351 h ([14]; lung, inhaled, 2 mg/kg): 20 ng/g
concentration at 0 h ([14]; lung, inhaled, 7.2 mg/kg): 39000 ng/g
concentration at 39 h ([14]; lung, inhaled, 7.2 mg/kg): 19500 ng/g
concentration at 78 h ([14]; lung, inhaled, 7.2 mg/kg): 9750 ng/g
concentration at 117 h ([14]; lung, inhaled, 7.2 mg/kg): 4880 ng/g
concentration at 156 h ([14]; lung, inhaled, 7.2 mg/kg): 2440 ng/g
concentration at 195 h ([14]; lung, inhaled, 7.2 mg/kg): 1220 ng/g
concentration at 273 h ([14]; lung, inhaled, 7.2 mg/kg): 300 ng/g
concentration at 312 h ([14]; lung, inhaled, 7.2 mg/kg): 150 ng/g
concentration at 351 h ([14]; lung, inhaled, 7.2 mg/kg): 80 ng/g
concentration at 0.5 h ([14]; lung, iv, 2 mg/kg): 590 ng/g
concentration at 2 h ([14]; lung, iv, 2 mg/kg): 540 ng/g
concentration at 24 h ([14]; lung, iv, 2 mg/kg): 180 ng/g
concentration at 48 h ([14]; lung, iv, 2 mg/kg): 90 ng/g
concentration at 168 h ([14]; lung, iv, 2 mg/kg): 0 ng/g
concentration at 0.5 h ([14]; plasma, inhaled, 2 mg/kg): 2030 ng/mL
concentration at 24 h ([14]; plasma, inhaled, 2 mg/kg): 230 ng/mL
concentration at 48 h ([14]; plasma, inhaled, 2 mg/kg): 80 ng/mL
concentration at 168 h ([14]; plasma, inhaled, 2 mg/kg): 0 ng/mL
concentration at 0.5 h ([14]; plasma, iv, 2 mg/kg): 11000 ng/mL
concentration at 2 h ([14]; plasma, iv, 2 mg/kg): 7720 ng/mL
concentration at 24 h ([14]; plasma, iv, 2 mg/kg): 800 ng/mL
MEC Average (Mode, most frequent MEC) [15]: 0.12 µg/mL
MEC Range [15]: 0.032 to 2 µg/mL
Kidney concentration, Stone 2004 (radiolabeled compound) ([16]; 0.5 h): 9.15 µg/g
Liver concentration, Stone 2004 (radiolabeled compound) ([16]; 0.5 h): 5.03 µg/g
Lung concentration, Stone 2004 (radiolabeled compound) ([16]; 0.5 h): 5.12 µg/g
Plasma concentration, Stone 2004 (radiolabeled compound) ([16]; 0.5 h): 11000 ng/mL
Kidney concentration, Stone 2004 (radiolabeled compound) ([16]; 2 h): 10.60 µg/g
Liver concentration, Stone 2004 (radiolabeled compound) ([16]; 2 h): 7.04 µg/g
Lung concentration, Stone 2004 (radiolabeled compound) ([16]; 2 h): 4.50 µg/g
Plasma concentration, Stone 2004 (radiolabeled compound) ([16]; 2 h): 6100 ng/mL
Kidney concentration, Stone 2004 (radiolabeled compound) ([16]; 24 h): 11.40 µg/g
Liver concentration, Stone 2004 (radiolabeled compound) ([16]; 24 h): 22.20 µg/g
Lung concentration, Stone 2004 (radiolabeled compound) ([16]; 24 h): 2.44 µg/g
Plasma concentration, Stone 2004 (radiolabeled compound) ([16]; 24 h): 1740 ng/mL
MEC Average (Mode, most frequent MEC) [17]: 0.12 µg/mL
MEC Range [17]: 0.032 to 16 µg/mL
MEC Average (Mode, most frequent MEC) [18]: 0.06 µg/mL
MEC Range [18]: 0.016 to 32 µg/mL
MEC Average (Mode, most frequent MEC) [19]: 0.06 µg/mL
MEC Range [19]: 0.016 to 2 µg/mL
MEC Average (Mode, most frequent MEC) [20]: 0.25 µg/mL
MEC Range [20]: 0.016 to 32 µg/mL
MIC90 [21]: 2 µg/mL (≈ 1.83 µM)

CCCCCOc1ccc(-c2cc(-c3ccc(C(=O)N[C@H]4C[C@@H](O)[C@@H](O)NC(=O)[C@@H]5[C@@H](O)[C@@H](C)CN5C(=O)[C@H]([C@H](O)CC(N)=O)NC(=O)[C@H]([C@H](O)[C@@H](O)c5ccc(O)c(OS(=O)(=O)O)c5)NC(=O)[C@@H]5C[C@@H](O)CN5C(=O)[C@H]([C@@H](C)O)NC4=O)cc3)no2)cc1 [micafungin] (X1-[Orn(4R-OH,5R-OH)]T[Hyp][hTyr(3S-OH,4S-OH,3'-OSO3H)][Gln(3R-OH)][Pro(3S-OH,4S-Me)]; lactam 1-C)
exposure in kidney relative to plasma [22]: 3.4 fold
exposure in liver relative to plasma [22]: 1.6 fold
exposure in lung relative to plasma [22]: 2.9 fold
